This is an account of results in ChEMBL document CHEMBL1125954, “Studies on quinazolinones. 3: 1 novel and efficient route to the synthesis of conformationally restricted analogues of ketanserin and SGB-1534 as antihypertensive agents” (Bioorg Med Chem Lett, 1991).

This experiment has as its target Adrenergic receptor alpha-1 (Rattus norvegicus) (UniProt P15823+P23944+P43140). As to the kind of experiment: Compound was tested for antihypertensive activity mediated through Alpha-1 adrenergic receptor in anesthetized rat. It counts as functional.

On to `O=C1Nc2ccccc2C2=NC(CN3CCN(c4ccccc4)CC3)CN12` (stereo unspecified), for which the ED50 (as a rule, the midpoint of the dose-response relation) came to 0.25 mg/kg.
